Experimental data from patent publication US20060272107A1, “Hair relaxing composition comprising at least one non-hydroxide polyguanidine” (priority 2005, published 2006).

Experiment: Hair relaxing test: simplified aqueous composition applied to hair
Procedure: A simplified hair relaxing composition was prepared, containing N″,N″-1,3-propanediylbis[N,N,N′,N′-tetramethylguanidine] (RN: 289474-28-8) at a concentration of 0.5M in water, as active relaxing agent. This composition was applied to naturally frizzy African hair for 20 minutes at a temperature of 30° C.
A simplified hair relaxing composition was prepared, containing N″,N″,N″″-(nitrilotri-2,1-ethanediyl)tris[N,N,N′,N′-tetramethylguanidine] (RN: 368866-05-1) at a concentration of 0.25M in water, as active relaxing agent. This composition was applied to naturally frizzy African hair for 25 minutes at a temperature of 30° C.

Row | SMILES | hair relaxing (0.25M in water, applied for 25 minutes at 30° C) | hair relaxing (0.5M in water, applied for 20 minutes at 30° C)
1 | CN(C)C(=NCCN(CCN=C(N(C)C)N(C)C)CCN=C(N(C)C)N(C)C)N(C)C [N″,N″,N″″-(nitrilotri-2,1-ethanediyl)tris[N,N,N′,N′-tetramethylguanidine]] | effectively relaxed | 
2 | CN(C)C(=NCCCN=C(N(C)C)N(C)C)N(C)C [N″,N″-1,3-propanediylbis[N,N,N′,N′-tetramethylguanidine]] |  | effectively relaxed
